US20190119348A1, “PARATHYROID HORMONE RECEPTOR 1 ANTAGONIST AND INVERSE AGONIST POLYPEPTIDES AND METHODS OF THEIR USE” (The General Hospital Corporation, priority 2016, published 2019)
Read-outs that look alike come from different tables or passages of the source. Each block holds one compound with its values, some of them ahead of it. Where a SMILES comes first, the peptide text is derived from it. [ ]: non-standard residue; d: D form. The star is where a group is joined. 5TAMRA = CN(C)c1ccc2c(c1)Oc1cc(N(C)C)ccc1C21OC(=O)c2cc(C(=O)*)ccc21

Legend:
PTHR1 [1] = molecular target: T1, PTHR1 (Homo sapiens, UniProt Q03431); assay: Residual agonist activity, cAMP luminescence in GP-2.3 cells; type: cell-based; details: ligands applied directly to GP-2.3 cells
T1 construct: expressed in transfected cells; host or cells: GP-2.3 (HEK-293 stably transfected with hPTHR1 and GloSensor)
T1 sequence (Q03431 27-593): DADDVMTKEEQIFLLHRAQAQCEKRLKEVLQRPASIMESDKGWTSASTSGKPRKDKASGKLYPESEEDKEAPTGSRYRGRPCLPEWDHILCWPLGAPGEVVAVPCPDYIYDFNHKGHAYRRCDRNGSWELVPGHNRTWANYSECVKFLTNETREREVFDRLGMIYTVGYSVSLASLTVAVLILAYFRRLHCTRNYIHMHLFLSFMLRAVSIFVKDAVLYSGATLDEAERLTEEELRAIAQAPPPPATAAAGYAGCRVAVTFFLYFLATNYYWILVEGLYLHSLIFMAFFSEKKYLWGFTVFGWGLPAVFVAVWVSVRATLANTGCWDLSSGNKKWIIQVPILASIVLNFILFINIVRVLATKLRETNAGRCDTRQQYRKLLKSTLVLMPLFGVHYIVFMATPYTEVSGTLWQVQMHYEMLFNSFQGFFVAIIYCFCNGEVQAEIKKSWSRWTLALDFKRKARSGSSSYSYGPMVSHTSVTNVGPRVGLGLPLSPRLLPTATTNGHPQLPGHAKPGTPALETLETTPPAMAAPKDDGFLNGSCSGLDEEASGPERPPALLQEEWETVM
Protocol: (§1) cAMP signaling was assessed in the HEK293-derived or SaOS2-derived cell lines stably expressing the luciferase-based GloSensor™ cAMP reporter (Hattersley et al., Paper presented at: Novel Signaling Mechanisms and Bone Cell Biology 2014; Binkowski et al., Methods in molecular biology. 756:263-271). HEK-293 cells were further transfected to stably express the hPTHR1, hPTHR1-H223R, or hPTHR1-T410P. The cells were seeded into 96-well white plates and were assayed 24 to 48 hours post-confluency. Assays were performed at room temperature in CO2-independent culture media (Life Technologies, Corp., Carlsbad, Calif.) containing 0.1% BSA (CIDB). The cells were pre-loaded with luciferin (0.5 mM in CIDB) for 15 minutes, then PTH peptides were added at varying concentrations. cAMP-dependent luminescence was measured at two-minute intervals using a PerkinElmer Envision plate reader. The time at which maximum luminescence (cps) observed with agonist alone, typically at 10-20 minutes after agonist addition, was used to obtain data from wells containing antagonist with or without agonist, to thus generate antagonist ligand dose-response curves. The resulting cps values were then plotted against ligand concentration using GraphPad Prism 7.0 software and a four-parameter logistics curve fitting equation, which yielded parameters of inhibitory potency (pIC50).

PTHR1 (hPTHR1) = molecular target: T2, PTHR1 (hPTHR1) (Homo sapiens, UniProt Q03431); assay: Radioligand competition binding in GP-2.3 cells; details: radioligand competition
T2 construct: expressed in transfected cells; host or cells: GP-2.3 (HEK-293 stably transfected with hPTHR1 and GloSensor)
T2 sequence (Q03431 27-593): T1 sequence (Q03431 27-593)
Protocol: (§2) Intact cell binding reactions were performed in 96-well plates, and, following incubation, the cells were lysed with 1N NaOH, and the lysate was counted for gamma radiation. For membrane dissociation assays, reactions were assembled in 15 cc tubes, and, at times following membrane addition (t=0), aliquots were withdrawn and filtered through a well of a vacuum filtration 96-well plate, rinsed, and, after washing, the filters were removed and counted for gamma irradiation. […] Curves were fit to the data using a four-parameter sigmoidal dose-response equation.
(§3) Pharmacological properties of the ligands were assessed in cells expressing the PTHR1 and the GloSensor™ cAMP reporter. The assays used GP-2.3 cells, derived from HEK293 cells by stable transfection with the hPTHR1 and GloSensor™, as well as SGS-72 cells, which are derived from the human osteosarcoma cell line, Saos-2, in which is endogenously expressed the hPTHR1, by stable transfection with GloSensor™. Binding of representative polypeptides to the PTHR1 was assessed in GP-2.3 cells by radioligand competition methods (FIGS. 1A and 1B, Table 3).
The assays were performed in GP-2.3 cells with the two tracer ^125I-radioligands shown; values are half-maximal inhibitory concentration (pIC50) and corresponding nanomolar value (below) derived from curve fitting ligand dose-response data. Data are means of four experiments.

endogenous hPTHR1 = molecular target: T3, endogenous hPTHR1 (Homo sapiens, UniProt Q03431); assay: Antagonism of PTH(1-34)- and PTHrP(1-36)-induced cAMP response (GloSensor) in SGS-72 cells; type: cell-based
T3 construct: Saos-2, in which is endogenously expressed the hPTHR1; endogenous in cells
T3 sequence (Q03431 27-593): T1 sequence (Q03431 27-593)
Protocol: cAMP signaling was assessed in the HEK293-derived or SaOS2-derived cell lines stably expressing the luciferase-based GloSensorTM cAMP reporter ([…] al., Paper presented at: Novel Signaling Mechanisms and Bone Cell Biology 2014; Binkowski et al., Methods in molecular biology. 756:263-271). HEK-293 cells were further transfected to stably express the hPTHR1, hPTHR1-H223R, or hPTHR1-T410P. The cells were seeded into 96-well white plates and were assayed 24 to 48 hours post-confluency. Assays were performed at room temperature in CO2-independent culture media (Life Technologies, Corp., Carlsbad, Calif.) containing 0.1% BSA (CIDB). The cells were pre-loaded with luciferin (0.5 mM in CIDB) for 15 minutes, then PTH peptides were added at varying concentrations. cAMP-dependent luminescence was measured at two-minute intervals using a PerkinElmer Envision plate reader. The time at which maximum luminescence (cps) observed with agonist alone, typically at 10-20 minutes after agonist addition, was used to obtain data from wells containing antagonist with or without agonist, to thus generate antagonist ligand dose-response curves. The resulting cps values were then plotted against ligand concentration using GraphPad Prism 7.0 software and a four-parameter logistics curve fitting equation, which yielded parameters of inhibitory potency (pIC50). Pharmacological properties of the ligands were assessed in cells expressing the PTHR1 and the GloSensorTM cAMP reporter. The assays used GP-2.3 cells, derived from HEK293 cells by stable transfection with the hPTHR1 and GloSensorTM, as well as SGS-72 cells, which are derived from the human osteosarcoma cell line, Saos-2, in which is endogenously expressed the hPTHR1, by stable transfection with GloSensorTM. Binding of representative polypeptides to the PTHR1 was assessed in GP-2.3 cells by radioligand competition methods (FIGS. 1A and 1B, Table 3). […] In Table 5, antagonist assays were performed in SGS-72 cells (SaOS2 cells with stable GloSensorTM cAMP reporter) at room temperature. […] The mean (±sem) concentration of antagonist that inhibited the maximum agonist-induced response observed in the absence of antagonist (at 40 minutes) is reported in units of -log M (pIC50), and the corresponding nanomolar value is shown below each pIC50 value. Data are means of the number of seven experiments. The PTH(1-34)-induced maximum luminescence was 500,000 cps and the basal was 5,000 cps. TMR indicates Lys13 modified at epsilon amino function with TMR. The data are illustrated in FIG. 7A. […] Date are means (±SEM) of the number of separate experiments indicated by n.

PTHR1 [2] = molecular target: T1, PTHR1; assay: Antagonism of PTH(1-34)-induced cAMP response (GloSensor) in GP-2.3 cells; type: cell-based; details: PTH(1-34) 1 nM
Protocol: as §1, §3
z,999 concentration of antagonist that inhibited the maximum response to PTH(1-34)-induced in the absence of antagonist (at ˜40 minutes) is reported in units of -log M (pIC50), and the corresponding nanomolar value is shown below each pIC50 value. Data are means of the number of experiments indicated (n). The PTH(1-34)-induced maximum luminescence was ˜80,000 cps and the basal was ˜1,000 cps. TMR indicates Lys13 modified at epsilon amino function with TMR, P vs. inhibition by dW12,Y34-bPTH(7-34).

PTHR1 [3] = molecular target: T1, PTHR1; assay: Confocal microscopy of TMR-ligand internalization in GP-2.3 cells; type: cell-based; details: 15 minutes after ligand addition (100 nM)
Protocol: Confocal fluorescence microscopy images were acquired using Olympus FV-1000 MPE confocal system (Center Valley, Pa. 18034), performed by the Photopathology Core facility of the Wellman Center for Photomedicine at the Massachusetts General Hospital. Images were captured with a 40× (LUMPLFL 0.8NA WD 3.3 mm) water-immersion objective, and with 405 nm and 559 nm excitation lasers, at a resolution of 1024×1024.
The cells were cultured on glass cover-slips in 24-well plates to ˜75% of confluency, then treated with PTH^TMR ligand (100 nM) in Hank's balanced salts buffer with 0.1% BSA (HBB) for 15 minutes at room temperature, then rinsed thrice with HBB, fixed with 4% formalin for 5 minutes, mounted with vector-shield containing DAPI on a glass microscope slide, viewed on the microscope, and digitally imaged.

PTHR1 [4] = molecular target: T1, PTHR1; assay: PTHR1 binding kinetics (dissociation) in GP-2.3 cell membranes
Protocol: as §2, with “Ligand binding to the PTH1 R was assessed in intact GP-2.3 cells or membranes prepared from GP-2.3 cells using a ^125I-PTH peptide analog as tracer radioligand and were incubated at room temperature for 90 minutes. Intact” for “Intact”

residual agonist activity compared with dTrp^12-PTH(7-34)-1894 (PTHR1 [1]): less residual agonist activity
apparent PTHR1 affinity compared with dTrp^12-PTH(7-34)-1894 (PTHR1 (hPTHR1)): at least as strong
fold more effective inhibition than dTrp^12-PTH(7-34)-1894 (endogenous hPTHR1; PTH(1-34) 0.3 nM): ~30 fold
IC50 (endogenous hPTHR1; antagonist pre-treatment 10 minutes, PTHrP(1-36) 0.3 nM, seven experiments, read-out: corresponding nanomolar value vs. PTHrP(1-36) (Table 5)): 1 nM
IC50 (endogenous hPTHR1; antagonist pre-treatment 10 minutes, PTHrP(1-36) 0.3 nM, seven experiments, read-out: pIC50 vs. PTHrP(1-36) (Table 5) (converted)): 0.871 nM
IC50 (endogenous hPTHR1; corresponding nanomolar value vs. PTH(1-34) (Table 5), antagonist pre-treatment 10 minutes, PTH(1-34) 0.3 nM, seven experiments): 1 nM
IC50 (endogenous hPTHR1; pIC50, inhibition of cAMP signal induced by PTH(1-34), PTH(1-34) 0.3 nM): 2.51 nM
IC50 (endogenous hPTHR1; pIC50 vs. PTH(1-34) (Table 5), antagonist pre-treatment 10 minutes, PTH(1-34) 0.3 nM, seven experiments): 0.832 nM
fold more effective inhibition than dTrp^12-PTH(7-34)-1894 (PTHR1 [2]): five
IC50 (PTHR1 [2]; pIC50, inhibition of cAMP signal induced by PTH(1-34)): 100 nM
Compound: CC[C@H](C)[C@H](N)C(=O)N[C@@H](CCC(N)=O)C(=O)N[C@@H](CC(C)C)C(=O)N[C@@H](CCSC)C(=O)N[C@@H](Cc1c[nH]cn1)C(=O)N[C@@H](CCC(N)=O)C(=O)N[C@@H](CCCNC(=N)N)C(=O)N[C@@H](C)C(=O)N[C@@H](CCCCN)C(=O)N[C@@H](Cc1c[nH]c2ccccc12)C(=O)N[C@H](C(=O)N[C@@H](CCC(N)=O)C(=O)N[C@@H](CC(=O)O)C(=O)N[C@@H](C)C(=O)N[C@@H](CCCNC(=N)N)C(=O)N[C@@H](CCCNC(=N)N)C(=O)N[C@@H](CCCNC(=N)N)C(=O)N[C@@H](C)C(=O)N[C@@H](Cc1ccccc1)C(=O)N[C@@H](CC(C)C)C(=O)N[C@@H](Cc1c[nH]cn1)C(=O)N[C@@H](CCCCN)C(=O)N[C@@H](CC(C)C)C(=O)N[C@H](C(=O)N[C@@H](C)C(=O)N[C@@H](CCC(=O)O)C(=O)N[C@H](C(=O)N[C@@H](Cc1c[nH]cn1)C(=O)N[C@H](C(=O)N[C@@H](C)C(=O)N[C@@H](CCC(=O)O)C(=O)N[C@H](C(N)=O)[C@@H](C)CC)[C@@H](C)O)[C@@H](C)CC)[C@@H](C)CC)[C@@H](C)CC [compound 1950, LA-PTH(5-36)] (H-IQLMHQRAKWIQDARRRAFLHKLIAEIHTAEI-NH2; N-terminus assumed)

ligand internalization (TMR fluorescence) (PTHR1 [3]): did not internalize
Compound: CC[C@H](C)[C@H](N)C(=O)N[C@@H](CCC(N)=O)C(=O)N[C@@H](CC(C)C)C(=O)N[C@@H](CCSC)C(=O)N[C@@H](Cc1c[nH]cn1)C(=O)N[C@@H](CCC(N)=O)C(=O)N[C@@H](CCCNC(=N)N)C(=O)N[C@H](Cc1c[nH]c2ccccc12)C(=O)N[C@@H](CCCCNC(=O)c1ccc2c(c1)C(=O)OC21c2ccc(N(C)C)cc2Oc2cc(N(C)C)ccc21)C(=O)N[C@@H](Cc1c[nH]c2ccccc12)C(=O)N[C@H](C(=O)N[C@@H](CCC(N)=O)C(=O)N[C@@H](CC(=O)O)C(=O)N[C@@H](C)C(=O)N[C@@H](CCCNC(=N)N)C(=O)N[C@@H](CCCNC(=N)N)C(=O)N[C@@H](CCCNC(=N)N)C(=O)N[C@@H](C)C(=O)N[C@@H](Cc1c[nH]c2ccccc12)C(=O)N[C@@H](CC(C)C)C(=O)N[C@@H](Cc1c[nH]cn1)C(=O)N[C@@H](CCCCN)C(=O)N[C@@H](CC(C)C)C(=O)N[C@H](C(=O)N[C@@H](C)C(=O)N[C@@H](CCC(=O)O)C(=O)N[C@H](C(=O)N[C@@H](Cc1c[nH]cn1)C(=O)N[C@H](C(=O)N[C@@H](C)C(=O)N[C@@H](CCC(=O)O)C(=O)N[C@H](C(N)=O)[C@@H](C)CC)[C@@H](C)O)[C@@H](C)CC)[C@@H](C)CC)[C@@H](C)CC [compound 1953, TMR-dW12, W23-LA-PTH(5-36)] (H-IQLMHQR[dW]K(5TAMRA)WIQDARRRAWLHKLIAEIHTAEI-NH2; N-terminus assumed)

dissociation from the PTHR1 compared with ^125I-Tyr^36-PTHrP(5-36)-836 and ^125I-M-PTH(1-15)-779 (PTHR1 [4]): dissociated more slowly
Compound: ^125I-Nle^8, dTrp^12, Trp^23, Tyr^36-LA-PTH(5-36)-1954
